# Data: patent US20200369674A1, “ANTI-PAIN COMPOUND AND PREPARATION METHOD THEREOF” (LUNAN PHARMACEUTICAL GROUP CORPORATION, priority 2017, published 2020)
# Legend:
# [1] = tested on: ICR mice; assay: Hot plate test; type: in vivo; conditions: Mus musculus, po; 4 μmol/kg intragastric, latency 2.0 hours after administration, hot plate 55° C.; read-out: PTE %
# Procedure: (§1) ICR mice, 18-22 g, half of them being male and the other half being female, provided by the Department of Laboratory Animals, Peking University (License No.: SCXK (Beijing) 2016-0010).
# The temperature of hot plate was adjusted to 55° C., and the responses of mouse such as licking hind feet and jumping were used as the observation indexes. The time from the placement of mice on copper plate to the appearance of the above responses was defined as latency time. The latency time was measured for three times 30 minutes before administration, and the average value thereof was used as basic threshold, or baseline latency (BL). The animals with a latency time greater than 15 s and less than 5 s were removed, and the residual mice were randomly grouped, 8 animals per group.
# Vehicle control group (double-distilled water) and groups for samples to be tested (the compounds and doses thereof were shown in Table 1) were set. All drugs were dissolved in […] before administration, and given by intragastric administration. The latency time was measured 2.0 hours after administration. Percentage of Pain Threshold Elevated Rate (PTE %) of compound on mice was calculated according to the following formula:
# PTE %=(latency time of test group−latency time of vehicle control group)/latency time of vehicle control group×100
# [2] = tested on: ICR mice; assay: Acetic acid writhing test; type: in vivo; parameters: key to Inhibition rate (%): Symbol “—” indicates that the data obtained at this dose was not significantly different from the vehicle control group; conditions: 0.6% acetic acid ip two hours after administration; for Inhibition rate (%): 4 μmol/kg intragastric
# Procedure: as §1
# ICR mice, half of them being male and the other half being female, were randomly grouped, 8 mice per group. Vehicle control group (double-distilled water), ibuprofen control group, and groups for samples to be tested (the compounds and doses thereof were shown in Table 2) were set. All drugs were dissolved in double-distilled water before administration, and given by intragastric administration at predetermined doses. Two hours after the administration, the mice were intraperitoneally injected with 0.6% acetic acid solution (10 ml/kg, ip), and the number of times the mice writhed (abdomen depressed, buttock raised, body elongated) was recorded within 5-20 minutes. The inhibition rate % of compound on writhing pain in mice was calculated according to the following formula.
# Inhibition rate %=(number of writhing times in vehicle control group−number of writhing times in test group)/number of writhing times in vehicle control group×100
# [3] = tested on: ICR mice; assay: Formalin experiment; type: in vivo; conditions: Mus musculus, po, 2 h, 2.5% formalin two hours after administration, phase II 10-60 minutes, read-out: Phase II pain inhibition rate (%); for inhibition in vivo at 4 µmol/kg: 4 μmol/kg intragastric
# Procedure: as §1
# ICR mice, half of them being male and the other half being female, were randomly grouped, 8 mice per group. Vehicle control group (double-distilled water) and groups for samples to be tested were set, in which the compounds and doses thereof were shown in Table 3. All drugs were dissolved in double-distilled water before administration, and given by intragastric administration at predetermined doses. Two hours after administration, the mice were injected with 20 ul of 2.5% formalin solution in the right hind foot, and the time (s) of licking or biting foot was recorded as an index of pain response, in which 0-5 minutes was phase I, 10-60 minutes was phase II, and the total observation time was 60 minutes. The phase II pain inhibition rate of compound in mice was calculated according to the following formula:
# Inhibition rate %=(time of licking or biting foot in vehicle control group−time of licking or biting foot in test group)/time of licking or biting foot in vehicle control group×100
# [4] = tested on: ICR mice; assay: Xylene-induced mouse ear swelling test (Effect Example 4); type: in vivo; parameters: key to Inhibition rate (%): Symbol “—” indicates that the data obtained at this dose was not significantly different from the vehicle control group; conditions: 50 uL xylene two hours after administration; for inhibition in vivo at 4 µmol/kg: Mus musculus, po, 2 h, 4 μmol/kg intragastric, read-out: Inhibition rate (%)
# Procedure: as §1
# ICR mice were randomly grouped, 8 mice per group, half of them being male and the other half being female. Vehicle control group (double-distilled water) and groups for samples to be tested (the compounds and doses thereof were shown in Table 4). All drugs were dissolved in double-distilled water immediately before administration, and given by intragastric administration at predetermined doses. Two hours after administration, 50 uL of xylene was smeared evenly on the inner and outer sides of right ear of mouse. After 30 minutes, the left and right ears of mouse were cut, and circular ear pieces of the same size were punched at the same position on the left and right ears, and weighed. The ear swelling inhibition rate of compound in mice was calculated according to the formula.
# Inhibition rate %=(degree of ear swelling in vehicle control group−degree of ear swelling in test group)/degree of ear swelling in vehicle control group×100
# [5] = tested on: CCI rats; assay: Mechanical stimulation paw withdrawal threshold (MWT) in CCI rats; type: in vivo, SD rats; conditions: 100 mg/kg i.g. daily; for inhibition rate (absolute %): PTE % vs vehicle; for MWT: mean±SEM; for inhibition rate (relative %): relative to sham minus vehicle
# Procedure: (§2) SD rats, body weight 180 g-220 g, half of them being male and the other half being female, provided by the Department of Laboratory Animals, Peking University. The rats were raised in a standard environment with temperature of 22±0.5° C. and relative humidity of 55±5%, 12 h/12 h light-dark cycle, and fed with standard feed.
# (§3) Rat was anesthetized with pentobarbital sodium (60 mg/kg, i.p.), the right hind limb was surgically shaved, fixed in the prone position, a longitudinal incision was made along the middle of the right hind limb of the rat, the muscle was bluntly separated, the sciatic nerve was exposed, and the sciatic nerve bifurcate proximal end was loosely ligated with 4-0 silk suture for 4 times, with an interval of about 1 mm each time, in which the degree of tightness was suitable when it was observed that the right hind leg was slightly shaken. After ligation, the muscle and skin were sutured in sequence. For the sham-operated group, the sciatic nerve was only exposed, but not ligated. The success of modeling was determined by observing whether the hind limb of the rat's operation side was closed, slightly valgus and often vacated, and by measuring the mechanical stimulation paw withdrawal threshold and the thermal stimulation paw withdrawal latency of the rat.
# (§4) Before surgery, the mechanical stimulation paw withdrawal thresholds and the thermal stimulation paw withdrawal latencies in the rats were determined, and the rats were grouped as: sham operation group (sham), vehicle group (double-distilled water, i.g.), DXL-A-22 group (2 mg/kg, i.g.), DXL-A-24 group (1 mg/kg, i.g.), and Gabapentin group (100 mg/kg, i.g.). All compounds and drugs were dissolved in double-distilled water, and given by intragastric administration at 1 mL/100 g. From the first day after surgery, the administration was carried out every day, and the mechanical stimulation paw withdrawal threshold and the thermal stimulation paw withdrawal latency were measured 2 hours after administration.
# The mechanical stimulation paw withdrawal threshold (MWT) of rats was detected by von Frey electronic pain tester. The measurement was carried out on the days 5, 7 and 14 after operation. The rats were placed in a transparent plexiglass box (whose bottom was a wire mesh with a gap of 1 mm^2) to adapt to the environment for 30 min. After the rats had no exploration action, the von Frey electronic pain tester was used to stimulate the middle position of paw at the operation side of the rat, and the maximum force caused by rat paw withdrawal response (i.e., MWT) was recorded. The inhibition rate of the compound was calculated according to the following formula:
# Absolute increase rate (i.e., PTE %): PTE %=(MWT of test group−MWT of vehicle group)/MWT of vehicle group×100 (1)
# Relative increase rate: Inhibition rate %=(MWT of test group−MWT of vehicle group)/(MWT of Sham operation group−MWT of vehicle group)×100 (2)
# [6] = tested on: CCI rats; assay: Thermal stimulation paw withdrawal latency (PWL) in CCI rats; type: in vivo, SD rats; conditions: 100 mg/kg i.g. daily; for PWL: hot plate 50.5° C., cut-off 14s, mean±SEM
# Procedure: as §2, §3, §4
# The thermal stimulation paw withdrawal latency (PWL) was measured by a hot plate method. The measurement was carried out on the days 5, 7 and 14 after operation. The temperature of the hot plate was 50.5° C. Timing started when the rat was placed on the hot plate, and stopped when the shaking and foot licking responses of the rat appeared, and this time was the PWL of the rat. The hot plate cut-off time was 14s, and the percentage of analgesia (i.e., MPE %) was calculated according to formula (3):
# MPE %=(PWL of test group−PWL of vehicle group)/(cut-off time−PWL of vehicle group)×100 (3)
# [7] = Day 5 after operation, section 3.1
# [8] = Day 5 after operation, section 3.3
# [9] = Day 7 after operation, section 3.1
# [10] = Day 7 after operation, section 3.3
# [11] = Day 14 after operation, section 3.1
# [12] = Day 14 after operation, section 3.3
# [13] = Day 5 after operation, section 3.2
# [14] = Day 5 after operation, section 3.4
# [15] = Day 7 after operation, section 3.2
# [16] = Day 7 after operation, section 3.4
# [17] = Day 14 after operation, section 3.2
# [18] = Day 14 after operation, section 3.4
structure (smiles),measurement,setting,value
"FC(F)(F)c1cc(N2CC[N+]3(CCCC3)CC2)cc(C(F)(F)F)c1 [DXL-A-27, 8-(3,5-bis(trifluoromethyl)phenyI)-5,8-diazaspiro[4.5]decan-5-ium bromide]",change in vivo at 4 µmol/kg,[1],49%
same,Inhibition rate (%),[2],—
same,inhibition in vivo at 4 µmol/kg,[3],20.1%
same,inhibition in vivo at 4 µmol/kg,[4],4.13%
"O=[N+]([O-])c1cc(N2CC[N+]3(CCCC3)CC2)cc(C(F)(F)F)c1 [DXL-A-28, 8-(3-nitro-5-(trifluoromethyl)phenyI)-5,8-diazaspiro[4.5]decan-5-ium bromide]",change in vivo at 4 µmol/kg,[1],36%
same,Inhibition rate (%),[2],—
same,inhibition in vivo at 4 µmol/kg,[3],13.3%
same,inhibition in vivo at 4 µmol/kg,[4],9.27%
"Fc1ccccc1N1CC[N+]2(CCCC2)CC1.[Br-] [DXL-A-18, 8-(2-fluorophenyl)-5,8-diazaspiro[4.5]decan-5-ium bromide]",inhibition in vivo at 1 mg/kg,"[2]; Mus musculus, po, 2 h, 1 mg/kg intragastric, read-out: Inhibition rate (%)",21.7%
same,inhibition in vivo at 1 mg/kg,[3]; 1 mg/kg intragastric,22%
same,Inhibition rate (%),[4]; 1 mg/kg intragastric,—
"NCC1(CC(=O)O)CCCCC1 [Gabapentin, reference compound]",inhibition rate (absolute %),[5]; [7],99.36%
same,inhibition rate (absolute %),[5]; [8],87.98%
same,MWT,[5]; [7],21.73 ± 0.49**/
same,MWT,[5]; [8],21.73 ± 0.49**/
same,inhibition rate (relative %),[5]; [7],40.08%
same,inhibition rate (relative %),[5]; [8],41.04%
same,inhibition rate (absolute %),[5]; [9],128.67%
same,inhibition rate (absolute %),[5]; [10],123.00%
same,MWT,[5]; [9],23.37 ± 1.34**/
same,MWT,[5]; [10],23.37 ± 1.34**/
same,inhibition rate (relative %),[5]; [9],47.56%
same,inhibition rate (relative %),[5]; [10],49.94%
same,inhibition rate (absolute %),[5]; [11],101.42%
same,inhibition rate (absolute %),[5]; [12],83.36%
same,MWT,[5]; [11],21.27 ± 0.82**/
same,MWT,[5]; [12],21.27 ± 0.82**/
same,inhibition rate (relative %),[5]; [11],38.46%
same,inhibition rate (relative %),[5]; [12],36.91%
same,PWL,[6]; [13],11.37 ± 0.32**/
same,PWL,[6]; [14],11.37 ± 0.32**/
same,MPE(%),[6]; [13],59.72%
same,MPE(%),[6]; [14],54.02%
same,PWL,[6]; [15],11.76 ± 0.34**/
same,PWL,[6]; [16],11.76 ± 0.34**/
same,MPE(%),[6]; [15],66.16%
same,MPE(%),[6]; [16],62.48%
same,PWL,[6]; [17],11.88 ± 0.40**/
same,PWL,[6]; [18],11.88 ± 0.40**/
same,MPE(%),[6]; [17],66.51%
same,MPE(%),[6]; [18],67.88%
"CC(C)Cc1ccc(C(C)C(=O)O)cc1 (stereo not drawn) [Ibuprofen table, Ibuprofen, reference compound]",inhibition in vivo at 200 mg/kg,"[2]; Mus musculus, po, 2 h, 200 mg/kg intragastric, read-out: Inhibition rate (%)",49.1%
